Reference: patent EP2992880A1, “Use of heme oxygenase 1 inducers and cannabinoid 2 receptor or delta-opioid receptor agonists in inflammatory pain” (Fundació Institut de Recerca de l'Hospital de la Santa Creu …, priority 2014, dated 2016)
Read-outs that look alike come from different tables or passages of the source.

What was measured:
[1] = tested on: CFA-injected mice; assay: von Frey filaments test (mechanical allodynia) in CFA-induced chronic inflammatory pain; format: in vivo, male C57BL/6 mice
Protocol: (§1) The experiments were performed in male C57BL/6 mice acquired from Harlan Laboratories (Barcelona, Spain). All mice weighing 21 to 25 g were housed under 12-h/12-h light/ dark conditions in a room with controlled temperature (22° C) and humidity (66%). Animals had free access to food and water and were used after a minimum of 7 days acclimatization to the housing conditions. All experiments were performed according with the Guide for the Care and Use of Laboratory Animals as adopted and promulgated by the U.S. National Institutes of Health and approved by the local Committee of Animal Use and Care of the Autonomous University of Barcelona. All efforts were made to minimize animal suffering and to reduce the number of animals used.
(§2) Chronic inflammatory pain was induced by the subplantar injection of 30 µl of CFA (Sigma) into the right hind paw under brief anesthetic conditions with isoflurane according to previous works (Leánez et al., Eur J Pharmacol, 2009, 602:41-49; Hervera et al., Naunyn Schmiedebergs Arch Pharmacol, 2009, 380:345-352). All experiments were performed at 10 days after CFA injection. At this time point, all of these animals developed a local inflammatory reaction, allodynia to mechanical stimuli and hyperalgesia to noxious thermal stimuli, as previously reported (Negrete et al., PLoS One, 2011, 6:e26688). The development of mechanical allodynia and thermal hyperalgesia was evaluated by using the von Frey filaments and plantar tests, respectively. All animals were tested in each paradigm before and at 10 days after CFA-injection.
Mechanical allodynia was quantified by measuring the hind paw withdrawal response to von Frey filament stimulation. In brief, animals were placed in methacrylate cylinders (20 cm high, 9 cm diameter; Servei Estació, Barcelona, Spain) with a wire grid bottom through which the von Frey filaments (North Coast Medical, Inc., San Jose, CA) with a bending force in the range of 0.008-3.5 g were applied by using a modified version of the up-down paradigm, as previously reported by Chaplan et al. (J Neurosci Methods, 1994, 53:55-63). The filament of 0.4 g was used first and the 3.0 g filament was used as a cut-off. Then, the strength of the next filament was decreased or increased according to the response. The threshold of response was calculated from the sequence of filament strength used during the up-down procedure by using an Excel program (Microsoft Iberia SRL, Barcelona, Spain) that includes curve fitting of the data. Clear paw withdrawal, shaking, or licking of the paw was considered as a nociceptive-like response. Both ipsilateral and contralateral hind paws were tested. Animals were allowed to habituate for 1 h before testing in order to allow an appropriate behavioral immobility.
In a first set of experiments, we assessed the expression of inflammatory pain induced by the subplantar administration of CFA as previously used (Leánez et al., Eur J Pharmacol, 2009, 602:41-49). After the habituation period, baseline responses were established in the following sequence: von Frey filaments and plantar test. After baseline measurements, inflammatory pain was induced and animals were again tested in each paradigm at day 10 after CFA injection by using the same sequence as for baseline responses. The contralateral paws were used as controls (n = 6 animals per group).
In a second set of experiments, we evaluated the mechanical antiallodynic and thermal antihyperalgesic effects of the subplantar administration of different doses of a specific DOR (DPDPE) or CB2R (JWH-015) agonist and their respective vehicles in the contralateral and ipsilateral paw of CFA-injected animals (n = 6 animals per group). […]

[2] = visceral pain; cited from earlier work
[3] = tested on: CFA-injected mice; assay: plantar test (thermal hyperalgesia) in CFA-induced chronic inflammatory pain; format: in vivo, male C57BL/6 mice
Protocol: as §1, §2
Thermal hyperalgesia was assessed as previously reported by Hargreaves et al. (Pain, 1988, 32:77-88). Paw withdrawal latency in response to radiant heat was measured using the plantar test apparatus (Ugo Basile, Varese, Italy). Briefly, mice were placed in methacrylate cylinders (20 cm high x 9 cm diameter) positioned on a glass surface. The heat source was positioned under the plantar surface of the hind paw and activated with a light beam intensity, chosen in preliminary studies to give baseline latencies from 8 to 10 s in control mice. A cut-off time of 12 s was used to prevent tissue damage in absence of response. The mean paw withdrawal latencies from the ipsilateral and contralateral hind paws were determined from the average of three separate trials, taken at 5 min intervals to prevent thermal sensitization and behavioral disturbances. Animals were habituated to the environment for 1 h before the experiment to become quiet and to allow testing. […]
In another set of experiments, we evaluated the mechanical antiallodynic and thermal antihyperalgesic effects produced by the subplantar administration of 290 µg of SnPP alone or combined with the subplantar administration of a high dose of DPDPE (150 µg) or JWH-015 (300 µg) in the contralateral and ipsilateral paw of CFA-injected animals (n = 6 animals per group).
The reversibility of the antinociceptive effects produced by the subplantar administration of DPDPE (150 µg) or JWH-015 (300 µg), as doses that produce the maximal antiallodynic and antihyperalgesic effects after peripheral inflammation, by their subplantar coadministration with specific (naltrindole; 50 µg; AM630; 60 µg) and an unspecific peripheral opioid antagonist (naloxone methiodide, NX-ME; 50 µg) or a cannabinoid 1 receptor (CB1R) antagonist (AM251; 150 µg) (Hervera et al., J Pharmacol Exp Ther, 2010, 334: 887-896; Hervera et al., Mol Pain, 2011, 7:25) was also evaluated (n = 6 animals per group). The doses of all tested opioid and cannabinoid receptor antagonists were selected according to our previous data in animals with chronic pain (Hervera et al., Naunyn Schmiedebergs Arch Pharmacol, 2009, 380:345-352; Hervera et al., Psychopharmacology, 2013, 228:463-477; Negrete et al., PLoS One, 2011, 6:e26688).
CoPP and SnPP were dissolved in DMSO (1 % solution in saline). JWH-015, AM630, AM251 were dissolved in DMSO (50 % solution in saline). […]

[4] = inflammatory pain; cited from earlier work
[5] = neuropathic pain; cited from earlier work

cobalt (III) protoporphyrin IX chloride [CoPP]
effect of CoPP treatment on the mechanical antiallodynic effects of DPDPE ([1]; CoPP 10 mg/kg intraperitoneal, DPDPE 50 µg subplantar (Fig. 3A)): did not alter | effect of CoPP treatment on the antiallodynic effects of JWH-015 ([1]; CoPP 10 mg/kg intraperitoneal, JWH-015 30 µg subplantar, P < 0.001 (Fig. 4A)): significantly enhanced | mechanical allodynia induced by peripheral inflammation ([1]; CoPP alone 10 mg/kg intraperitoneal, ipsilateral paw, P < 0.001 versus vehicle (Fig. 3A)): significantly attenuated | Mechanical allodynia, Experimental results (%) (maximal possible effect) ([1]; Table 5, ipsilateral paw, CoPP 10 mg/kg intraperitoneal, DPDPE 50 µg subplantar, vehicle 5.8): 27.1% | Mechanical allodynia, Experimental results (%) (maximal possible effect) ([1]; Table 6, ipsilateral paw, CoPP 10 mg/kg intraperitoneal, JWH-015 30 µg subplantar, vehicle 4.1): 25.3% | effect of CoPP on the antinociceptive effect of morphine treatment [2]: does not alter | effect of CoPP treatment on the thermal antihyperalgesic effects of DPDPE ([3]; CoPP 10 mg/kg intraperitoneal, DPDPE 50 µg subplantar, P < 0.001 (Fig. 3B)): significantly increased | effect of CoPP treatment on the antihyperalgesic effects of JWH-015 ([3]; CoPP 10 mg/kg intraperitoneal, JWH-015 30 µg subplantar, P < 0.001 (Fig. 4B)): significantly enhanced | thermal hyperalgesia induced by peripheral inflammation ([3]; CoPP alone 10 mg/kg intraperitoneal, ipsilateral paw, P < 0.001 versus vehicle (Fig. 3B)): significantly attenuated | Thermal hyperalgesia, Experimental results (%) (maximal possible effect) ([3]; Table 5, ipsilateral paw, CoPP 10 mg/kg intraperitoneal, DPDPE 50 µg subplantar, vehicle 4.0): 26.8% | Thermal hyperalgesia, Experimental results (%) (maximal possible effect) ([3]; Table 6, ipsilateral paw, CoPP 10 mg/kg intraperitoneal, JWH-015 30 µg subplantar, vehicle 4.9): 22.3% | effect of CoPP on the antinociceptive effect of morphine [4]: increases | effect of CoPP on the antinociceptive effect of DPDPE [5]: decreased | effect of CoPP on the antinociceptive effect of JWH-015 [5]: decreased | effect of CoPP on the antinociceptive effect of morphine [5]: increases
